Reference: the supplement of paper PMC10307832

What was measured:
Assay in all cases: relative viability (nuclei count vs DMSO), 5 days (fraction); higher = more cells survive
CX-5461 = compound: Cc1cnc(CNC(=O)c2c(=O)c3ccc(N4CCCN(C)CC4)nc3n3c2sc2ccccc23)cn1 [CX-5461]
In short: (§1)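 Vehicle-anchored 1536-well plates of lung cancer cell lines, held overnight at 37 °C, were pinned with five library-drug doses (not always all listed) spaced by √10. No medium change followed over the next 5 days, after which the cells were fixed, permeabilised and Hoechst-stained together and imaged at 4×. Nuclei were counted with MetaXpress, and viability is treated-well nuclei over vehicle-well nuclei, taken as a median across plates. Plates passed with control CV below 25% and at least one doubling.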

IMD-0354 = compound: O=C(Nc1cc(C(F)(F)F)cc(C(F)(F)F)c1)c1cc(Cl)ccc1O [IMD-0354]
In short: as §1

CX-5461 + Alpelisib = compound: Cc1cnc(CNC(=O)c2c(=O)c3ccc(N4CCCN(C)CC4)nc3n3c2sc2ccccc23)cn1 [CX-5461] + Cc1nc(NC(=O)N2CCC[C@H]2C(N)=O)sc1-c1ccnc(C(C)(C)C(F)(F)F)c1 [Alpelisib] (partner 2 µM)
In short: (§2)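 Lung cancer cell lines were seeded in 1536-well plates and dosed by pin tool the next day, with either a single drug or a fixed anchor-drug dose combined with five library-drug doses (not always all listed) spaced in √10 steps. Five days later, one step fixed the cells and stained their nuclei (final 0.05% Triton X-100, 1% formaldehyde, 1 ug/ml Hoechst), and nuclei were counted on 4× images. Relative viability is the nuclei count in treated wells divided by the count in vehicle wells, and each value is the median of duplicate plates.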

IMD-0354 + Pemetrexed = compound: O=C(Nc1cc(C(F)(F)F)cc(C(F)(F)F)c1)c1cc(Cl)ccc1O [IMD-0354] + Nc1nc2[nH]cc(CCc3ccc(C(=O)N[C@@H](CCC(=O)O)C(=O)O)cc3)c2c(=O)[nH]1 [Pemetrexed] (partner 0.2 µM)
In short: as §2

Row | Cell Line | relative viability (CX-5461; 0.01 µM) | relative viability (CX-5461; 0.03162 µM) | relative viability (CX-5461; 0.1 µM) | relative viability (CX-5461; 0.3162 µM) | relative viability (CX-5461; 1 µM) | relative viability (IMD-0354; 0.04 µM) | relative viability (IMD-0354; 0.1265 µM) | relative viability (IMD-0354; 0.4 µM) | relative viability (IMD-0354; 1.265 µM) | relative viability (IMD-0354; 4 µM) | relative viability (CX-5461 + Alpelisib; first compound 0.01 µM) | relative viability (CX-5461 + Alpelisib; first compound 0.03162 µM) | relative viability (CX-5461 + Alpelisib; first compound 0.1 µM) | relative viability (CX-5461 + Alpelisib; first compound 0.3162 µM) | relative viability (CX-5461 + Alpelisib; first compound 1 µM) | relative viability (IMD-0354 + Pemetrexed; first compound 0.04 µM) | relative viability (IMD-0354 + Pemetrexed; first compound 0.1265 µM) | relative viability (IMD-0354 + Pemetrexed; first compound 0.4 µM) | relative viability (IMD-0354 + Pemetrexed; first compound 1.265 µM) | relative viability (IMD-0354 + Pemetrexed; first compound 4 µM)
1 | NCI-H2085 | 1.07 | 1.01 | 0.992 | 1.02 | 0.869 | 1.06 | 0.975 | 0.775 | 0.449 | 0.415 | 0.965 | 0.935 | 0.96 | 1.02 | 0.853 | 0.954 | 0.846 | 0.644 | 0.294 | 0.276
2 | NCI-H2087 | 1.26 | 1.16 | 1.02 | 1.01 | 0.717 | 1.02 | 1 | 0.382 | 0.11 | 0.152 | 1.02 | 1.03 | 1.07 | 1.34 | 0.583 | 0.721 | 0.688 | 0.345 | 0.0911 | 0.106
3 | NCI-H2126 | 1 | 1.06 | 1.03 | 0.991 | 0.972 | 1.03 | 0.981 | 0.848 | 0.484 | 0.387 | 0.794 | 0.784 | 0.717 | 0.78 | 0.772 | 0.74 | 0.722 | 0.569 | 0.37 | 0.266
4 | NCI-H2170 | 1.03 | 1.02 | 1.08 | 1 | 1.02 | 0.956 | 1.02 | 0.777 | 0.806 | 0.226 | 0.766 | 0.834 | 0.889 | 0.913 | 0.718 | 0.275 | 0.302 | 0.235 | 0.286 | 0.191
5 | NCI-H2228 | 1.03 | 1.01 | 0.948 | 0.855 | 0.205 | 1.07 | 0.888 | 0.721 | 0.266 | 0.294 | 0.709 | 0.884 | 0.504 | 0.591 | 0.234 | 0.379 | 0.37 | 0.292 | 0.22 | 0.125
6 | NCI-H2347 | 1.02 | 1.04 | 1.04 | 0.937 | 0.908 | 1.1 | 1.02 | 0.738 | 0.511 | 0.4 | 1.11 | 1.04 | 1.07 | 0.834 | 0.994 | 0.387 | 0.435 | 0.373 | 0.365 | 0.27
7 | NCI-H2405 | 1.03 | 0.995 | 1.01 | 0.897 | 0.864 | 1.08 | 1.09 | 0.7 | 0.278 | 0.332 | 0.851 | 0.871 | 0.907 | 0.525 | 0.624 | 1.16 | 0.965 | 0.49 | 0.271 | 0.277
8 | NCI-H3122 | 0.977 | 1.02 | 0.965 | 1.01 | 0.831 | 1.12 | 1.06 | 0.723 | 0.313 | 0.151 | 0.836 | 0.951 | 0.762 | 0.773 | 0.677 | 0.196 | 0.211 | 0.18 | 0.281 | 0.15
9 | PC-3 [JPC-3] | 1.03 | 1.05 | 1.11 | 1.01 | 0.974 | 1.06 | 1.03 | 0.829 | 0.341 | 0.306 | 1.06 | 1.08 | 1.02 | 1.07 | 0.932 | 1.42 | 1 | 1.03 | 0.305 | 0.405
10 | PC-14 | 1.08 | 1.04 | 0.956 | 1.01 | 0.599 | 1.18 | 1.05 | 0.52 | 0.317 | 0.129 | 0.947 | 1.23 | 1.05 | 0.933 | 0.883 | 0.128 | 0.116 | 0.105 | 0.14 | 0.0524
11 | RERF-LC-KJ | 0.96 | 1.05 | 0.943 | 0.946 | 0.879 | 1.09 | 0.992 | 0.635 | 0.384 | 0.234 | 0.832 | 0.951 | 0.933 | 0.754 | 0.773 | 0.536 | 0.462 | 0.376 | 0.126 | 0.153
12 | SK-LU-1 | 1.08 | 1.07 | 1.04 | 1.07 | 0.736 | 1.16 | 0.97 | 0.581 | 0.488 | 0.277 | 1.08 | 1.35 | 0.724 | 0.945 | 0.332 | 1.11 | 0.777 | 0.44 | 0.225 | 0.249
13 | SK-MES-1 | 1.1 | 1.09 | 1.04 | 1.06 | 0.724 | 1.16 | 0.996 | 0.645 | 0.463 | 0.223 | 0.886 | 0.964 | 1.08 | 0.952 | 0.522 | 1.16 | 1.06 | 0.466 | 0.349 | 0.187
14 | SW 1573 | 0.94 | 0.978 | 0.689 | 0.656 | 0.33 | 1.15 | 0.916 | 0.548 | 0.22 | 0.13 | 0.733 | 0.788 | 0.91 | 0.822 | 0.36 | 0.872 | 0.799 | 0.271 | 0.131 | 0.0794
15 | UMC-11 | 1.09 | 0.994 | 0.928 | 0.909 | 0.382 | 1.1 | 1.04 | 0.551 | 0.224 | 0.271 | 0.932 | 1.21 | 1.07 | 0.956 | 0.391 | 0.819 | 0.692 | 0.281 | 0.205 | 0.219
